In patent US10815534B2, “Methods and materials for treating estrogen receptor positive breast cancer” (Mayo Foundation for Medical Education and Research, priority 2016, dated 2020):

Assays:
[1] = tested on: human lymphoblastoid cells; assay: Sensitivity of human lymphoblastoid cell lines selected by rs6990851 genotype (AA, AG, GG) to aromatase inhibitors; assay type: cell-based; conditions: rs6990851 GG versus AA and AG lymphoblastoid cells
ERα+ breast cancer cells = assay: Sensitization of ERα+ breast cancer cells by overexpression of CSMD1; assay type: cell-based; conditions: ERα+ breast cancer cells overexpressing CSMD1
[2] = tested on: letrozole resistant cells; assay: Sensitization of letrozole resistant cells by overexpression of CSMD1; assay type: cell-based; conditions: letrozole resistant cells overexpressing CSMD1
ERα [3] = molecular target: T1, ERα (Homo sapiens, UniProt P03372); conditions: FIG. 7, ERα/GADPH fold change
T1 sequence (P03372 1-595): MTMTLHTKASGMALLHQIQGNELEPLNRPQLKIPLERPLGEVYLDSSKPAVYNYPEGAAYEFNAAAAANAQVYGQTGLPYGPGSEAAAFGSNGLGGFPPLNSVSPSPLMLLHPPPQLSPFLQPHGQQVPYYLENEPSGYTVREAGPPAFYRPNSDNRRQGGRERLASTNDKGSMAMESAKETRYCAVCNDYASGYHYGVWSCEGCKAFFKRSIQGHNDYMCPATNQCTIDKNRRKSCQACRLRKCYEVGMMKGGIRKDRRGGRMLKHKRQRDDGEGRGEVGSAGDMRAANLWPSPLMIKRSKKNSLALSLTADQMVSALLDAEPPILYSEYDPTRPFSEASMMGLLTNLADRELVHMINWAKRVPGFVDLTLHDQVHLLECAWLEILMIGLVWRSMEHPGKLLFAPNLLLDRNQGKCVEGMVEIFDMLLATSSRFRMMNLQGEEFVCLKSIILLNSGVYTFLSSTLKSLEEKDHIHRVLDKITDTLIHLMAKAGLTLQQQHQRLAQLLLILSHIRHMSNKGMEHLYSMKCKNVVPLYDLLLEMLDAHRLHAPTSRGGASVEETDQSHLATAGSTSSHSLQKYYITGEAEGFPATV

ERα [4] = molecular target: T1, ERα; conditions: 0-40 μM, traces above the background

ERα degradation (ERα [3]) | direct binding to ERα (SPR sensograms) (ERα [4]) | SMILES | sensitivity of homozygous GG variant cells to treatment [1] | sensitization by CSMD1 overexpression (ERα+ breast cancer cells) | sensitization by CSMD1 overexpression [2]
 |  | CC(C)(C#N)c1cc(Cn2cncn2)cc(C(C)(C)C#N)c1 [anastrozole] | more sensitive | sensitized | sensitized
not | No interactions were observed | N#Cc1ccc(C(c2ccc(C#N)cc2)n2cncn2)cc1 [letrozole] | not observed |  | not
